From patent US10188653B2, “Diacylglycerol acyltransferase 2 inhibitors” (Pfizer Inc., priority 2014, dated 2019)

Target: hDGAT2 (Homo sapiens (Human), UniProt Q96PD7)
Experiment: In vitro DGAT2 assay, determination of IC50 values for DGAT2 inhibitors
Assay type: biochemical
Conditions: hDGAT2 membrane fraction; [1-14C]decanoyl-CoA and 1,2-didecanoyl-sn-glycerol substrates; geometric mean IC50; read-out: IC50 values of Examples for inhibition of DGAT2
Method: Recombinant baculovirus for the FLAG-tagged hDGAT2 was generated in SF9 insect cells using Bac-to-Bac baculovirus expression system (Invitrogen) according to the manufacturer's protocol. For the expression of hDGAT2, SF9 cells (20 L) grown in Sf900II media were infected with hDGAT2 baculovirus at a multiplicity of infection of 1 in a Wave Bioreactor System 20/50P wave bag (GE Healthcare). After 40 hours of infection, the cells were then harvested by centrifugation at 5,000×g. The cell pellets were washed by resuspending in phosphate buffered saline (PBS) and collected by centrifugation at 5,000×g. The cell paste was flash frozen in liquid N2 and stored at −80° C. until needed. All operations below were at 4° C. unless otherwise noted. […]
For determination of IC50 values, the reactions were carried out in 384-well white Polyplates (Perkin Elmer) in a total volume of 20 μL. […] Plates were centrifuged at 2,000×g for 1 min in an Allegra 6R Centrifuge (Beckman Coulter) and then were sealed again with fresh covers before reading in a 1450 Microbeta Wallac Trilux Scintillation Counter (Perkin Elmer). DGAT2 activity was measured by quantifying the generated product [^14C]tridecanoylglycerol in the upper organic phase. […]

hDGAT2, sequence (Q96PD7 whole entry): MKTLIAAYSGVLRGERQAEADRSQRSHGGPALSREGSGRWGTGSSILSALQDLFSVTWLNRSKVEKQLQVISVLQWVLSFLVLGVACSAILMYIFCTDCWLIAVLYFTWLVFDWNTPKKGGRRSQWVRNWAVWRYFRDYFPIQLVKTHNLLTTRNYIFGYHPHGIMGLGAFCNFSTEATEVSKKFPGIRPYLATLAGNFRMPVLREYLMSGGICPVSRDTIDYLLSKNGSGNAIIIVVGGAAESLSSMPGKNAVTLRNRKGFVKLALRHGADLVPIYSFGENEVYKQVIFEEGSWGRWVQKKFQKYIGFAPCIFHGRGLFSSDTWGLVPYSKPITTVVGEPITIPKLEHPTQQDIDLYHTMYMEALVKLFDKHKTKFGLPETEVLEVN

IC50: 7.9 nM
Substance: (R)-2-(3-(2-ethoxy- phenoxy)piperidin-1-yl)- N-(1-hydroxy-2-methyl- propan-2-yl)pyrimidine- 5-carboxamide [Example 19.21]
